Some results are limits rather than exact numbers.

Our source for the Papp values is PubChem BioAssay AID1845228.

For the series the following is noted: pampa; 60.0 min; 50.0 µM.
The compound `Cn1c2cc(S(C)=O)sc2c2cnn(Cc3ccccc3F)c(=O)c21` (centres undefined) came in with an apparent permeability (Papp) of 49 ×10⁻⁶ cm/s.

On to `CC(C)CNc1ccnc(NCc2csc(-c3ccccc3)n2)n1`, for which the apparent permeability (Papp) amounted to 228 ×10⁻⁶ cm/s.

Take `COc1cc2c(Nc3ccc(Cl)c(Cl)c3F)ncnc2cc1OCC1C[C@@H]2CN(C)C[C@@H]2C1` (some centres undefined): the Papp is greater than 300 ×10⁻⁶ cm/s.

Consider `CC#CC(=O)N1CCC[C@H]1c1nc(-c2ccc(C(=O)Nc3ccccn3)cc2)c2c(N)nccn12`, for which the apparent permeability coefficient (Papp) is less than 1 ×10⁻⁶ cm/s.

`CCOC(=O)[C@H](CCc1ccccc1)N[C@@H](C)C(=O)N1C(=O)N(C)C[C@H]1C(=O)O` came in with an apparent permeability (Papp) of less than 1 ×10⁻⁶ cm/s.

`Cc1ccc(-n2c(C)cc(-c3nnc4n3CCCCC4)c2C)cc1` returned a Papp of 192 ×10⁻⁶ cm/s.

Compound `O=C1Nc2ccc(C(=O)c3ccco3)cc2/C1=C/c1cc(Cl)c(O)c(Cl)c1` came in with an apparent permeability coefficient (Papp) of 38 ×10⁻⁶ cm/s.

Consider `C[C@@H]1COCCN1c1cc(C2(S(C)(=N)=O)CC2)nc(-c2ccnc3[nH]ccc23)n1` (some centres undefined), for which the apparent permeability (Papp) came to 33 ×10⁻⁶ cm/s.

`CC(=O)OCC1=C(C(=O)O)N2C(=O)C(NC(=O)Cc3cccs3)C2SC1` (centres undefined) yielded a Papp of 2 ×10⁻⁶ cm/s.

As for `N=c1c2c(-c3ccccc3)c(-c3ccccc3)n(Cc3ccccc3)c2ncn1CC1CCCO1` (centres undefined), the apparent permeability (Papp) was 207 ×10⁻⁶ cm/s.

For `CC(=CCCC1=CCC(C2=CC(=O)OC2O)OC1O)CCC1=C(C)CCCC1(C)C` (centres undefined), the Papp is 9.8 ×10⁻⁶ cm/s.

`CC[C@@]1(O)C(=O)OCc2c1cc1n(c2=O)Cc2c-1nc1ccccc1c2/C=N/OC(C)(C)C` showed a Papp of 81 ×10⁻⁶ cm/s.

For the compound `NC(=O)c1cccc(-c2cc(O)cc(OC(=O)NC3CCCCC3)c2)c1`, the Papp came to 6 ×10⁻⁶ cm/s.

In turn, `COC1CC(=C(c2cccs2)c2cccs2)C[N+](C)(C)C1` (centres undefined) registered a Papp of less than 1 ×10⁻⁶ cm/s.

Turning to `Cn1cc(C2=C(c3cn(CCCSC(=N)N)c4ccccc34)C(=O)NC2=O)c2ccccc21`, the apparent permeability (Papp) was less than 1 ×10⁻⁶ cm/s.

The compound `COc1cc(-c2nc(Cn3nnc(C(=O)Nc4cc(C)cc(C)c4)c3C)c(C)o2)cc(OC)c1OC` returned an apparent permeability coefficient (Papp) of 17 ×10⁻⁶ cm/s.

For the compound `CC/C=C(\C(=O)N[C@@H]1C(=O)N2C(C(=O)OCOC(=O)C(C)(C)C)=C(COC(N)=O)CS[C@H]12)c1csc(N)n1`, the apparent permeability (Papp) was less than 1 ×10⁻⁶ cm/s.

In the case of `NCCc1ccc(O)c(O)c1`, the Papp was less than 1 ×10⁻⁶ cm/s.

Consider `Cn1nnnc1Sc1ncnc2scc(-c3cccs3)c12`, for which the Papp is 244 ×10⁻⁶ cm/s.

In turn, `CO/N=C(\C(=O)N[C@@H]1C(=O)N2C(C(=O)OCOC(=O)C(C)(C)C)=C(/C=C\c3scnc3C)CS[C@H]12)c1csc(N)n1` yielded a Papp of 11 ×10⁻⁶ cm/s.

Compound `CC(C)C[C@H](CO)Nc1nc(S[C@@H](C)c2ccccc2)nc2nc(N)sc12` had an apparent permeability (Papp) of 244 ×10⁻⁶ cm/s.

As to `Cc1ccc(CN2C(=O)C(=O)c3cc(Br)cc(C)c32)cc1`, the apparent permeability coefficient (Papp) came out at 98.5 ×10⁻⁶ cm/s.

`Cc1[nH]c2ccccc2c1C1(O)C(=O)N(Cc2ccccc2)c2ccc(Cl)cc21` (centres undefined) gave a Papp greater than 300 ×10⁻⁶ cm/s.

For `CCCCCCCCc1ccc(CCC(N)(CO)CO)cc1`, the Papp was less than 1 ×10⁻⁶ cm/s.

On to `Nc1nc2c(s1)CCN(Cc1ccc(Cl)cc1)CC2`, for which the apparent permeability (Papp) is 127 ×10⁻⁶ cm/s.

For `CC[C@@H](c1ccc(F)c(F)c1)n1c(C(=O)OC)c(-c2ccno2)[nH]c1=S`, the apparent permeability (Papp) is 195 ×10⁻⁶ cm/s.

As for `COc1cc([C@@H]2c3cc4c(cc3[C@@H](O[C@@H]3O[C@@H]5CO[C@@H](C)O[C@@H]5[C@H](O)[C@@H]3O)[C@H]3COC(=O)[C@H]23)OCO4)cc(OC)c1O`, the apparent permeability coefficient (Papp) stood at 3 ×10⁻⁶ cm/s.

On to `N[C@@H](C(=O)N[C@@H]1C(=O)N2C(C(=O)O)=C(Cl)CC[C@H]12)c1ccccc1`, for which the Papp is less than 1 ×10⁻⁶ cm/s.

The compound `Cc1cccc(-n2nnnc2S(C)(=O)=O)c1` gave a Papp of 28.3 ×10⁻⁶ cm/s.

On to `CNC(=O)c1cc(Oc2ccc(NC(=O)Nc3cc(C(C)(C)C)nn3-c3ccc4ncccc4c3)c(F)c2)ccn1`, for which the Papp worked out at 210 ×10⁻⁶ cm/s.

Take `COc1c(C)cnc(Cn2cnc3c(Cl)nc(N)nc32)c1C`: the apparent permeability (Papp) is 3.17 ×10⁻⁶ cm/s.

Take `Cn1nnnc1Sc1ncnc2scc(-c3cccc(C#N)c3)c12`: the apparent permeability coefficient (Papp) is 76 ×10⁻⁶ cm/s.

With `Cc1cc(C)nc(NC(=S)N2CCN(c3ccc(C(F)(F)F)cn3)CC2)c1`, the Papp worked out at 137 ×10⁻⁶ cm/s.

Compound `O=C(O)C1=C(CSc2nnnn2CS(=O)(=O)O)CS[C@@H]2[C@H](NC(=O)[C@H](O)c3ccccc3)C(=O)N12` came in with a Papp of 12 ×10⁻⁶ cm/s.

Take `Cc1cccc(-c2csc3ncnc(Sc4nnnn4C)c23)c1`: the Papp was found to be 225 ×10⁻⁶ cm/s.

In turn, `C[n+]1c2cc(N)ccc2cc2ccc(N)cc21` came in with an apparent permeability (Papp) of less than 1 ×10⁻⁶ cm/s.

As to `Cc1cc(=O)c(C(=O)N[C@@H](C(=O)N[C@@H]2C(=O)N3C(C(=O)O)=C(CSc4nnnn4C)CS[C@H]23)c2ccc(O)cc2)c[nH]1`, the apparent permeability coefficient (Papp) is less than 1 ×10⁻⁶ cm/s.

Consider `Clc1ccc(CN[C@H]2CCN(c3ncc(Br)cn3)C2)c(Cl)c1`, for which the Papp was greater than 300 ×10⁻⁶ cm/s.

On to `CCC1C(C)=NN=C(c2ccc(OC)c(OC)c2)c2cc(OC)c(OC)cc21` (centres undefined), for which the Papp turned out to be 91 ×10⁻⁶ cm/s.

In the case of `CC(C)N(C[C@H]1O[C@@H](n2cnc3c(N)ncnc32)[C@H](O)[C@@H]1O)C1CC(CCc2nc3ccc(C(C)(C)C)cc3[nH]2)C1` (some centres undefined), the Papp was less than 1 ×10⁻⁶ cm/s.

Turning to `CC(OC(=O)NCC1(CC(=O)O)CCCCC1)OC(=O)C(C)C` (centres undefined), the Papp was found to be 143 ×10⁻⁶ cm/s.

On to `O=[N+]([O-])c1nccn1CO[C@@H](CO)[C@H](O)CO`, for which the apparent permeability coefficient (Papp) was less than 1 ×10⁻⁶ cm/s.

As for `c1ccc(CNCCNCc2ccccc2)cc1`, the apparent permeability coefficient (Papp) stood at 107 ×10⁻⁶ cm/s.

In turn, `COc1cc(Cc2cnc(N)nc2N)cc(OC)c1OC` yielded a Papp of 14 ×10⁻⁶ cm/s.
